{
  "source": "patent US10308602B2",
  "about": "“Organoselenium compounds, method for producing same, and pharmaceutical uses thereof in particular as antitumor agents” (TETRAHEDRON, priority 2014, dated 2019)",
  "format_in_all_cases": "cell-based",
  "key": {"DU145 cells (prostate)": {"test_system": "DU145 cells (prostate)", "assay": "Cytotoxicity, WST-1 cell viability test, DU145", "details": "Homo sapiens, DU-145, after 96 hours of treatment, read-out: Concentration decreasing by 50% the cell viability", "protocol": "(§1) Eight cell lines originating from different types of cancer were used: PC3 and DU145 (prostate), HT-29 and LS-174T (colon), Hep G2 (liver), MCF-7 (breast), MIA PaCa-2 and PANC-1 (pancreas).\n(§2) The cells are cultured in the specific culture medium described in Table II, at 37° C., 5% CO2, according to the operating procedures that are well known to the person skilled in the art.\n(§3) After thawing and amplification of the cancer cells in the appropriate culture medium (described in 1.2.), 96-well plates are inoculated with these cells and incubated or not incubated (controls) in their respective culture medium, in the presence of the compounds to be tested at 10, 50, 100, 250 and 500 μM.\n(§4) After 96 h of incubation, each 96-well plate is analyzed in order to measure the viability of the cells using a colorimetric test with WST-1."}, "LS174T cells (colon)": {"test_system": "LS174T cells (colon)", "assay": "Cytotoxicity, WST-1 cell viability test, LS174T", "details": "Homo sapiens, after 96 hours of treatment, read-out: Concentration decreasing by 50% the cell viability", "protocol": "as §1, §2, §3, §4"}, "HT-29 cells (colon)": {"test_system": "HT-29 cells (colon)", "assay": "Cytotoxicity, WST-1 cell viability test, HT-29", "details": "Homo sapiens, after 96 hours of treatment, read-out: Concentration decreasing by 50% the cell viability", "protocol": "as §1, §2, §3, §4"}, "PC3 cells (prostate)": {"test_system": "PC3 cells (prostate)", "assay": "Cytotoxicity, WST-1 cell viability test, PC3", "details": "Homo sapiens, PC-3, after 96 hours of treatment, read-out: Concentration decreasing by 50% the cell viability", "protocol": "as §1, §2, §3, §4"}, "Hep G2 cells (liver)": {"test_system": "Hep G2 cells (liver)", "assay": "Cytotoxicity, WST-1 cell viability test, Hep G2", "details": "Homo sapiens, HepG2, after 96 hours of treatment, read-out: Concentration decreasing by 50% the cell viability", "protocol": "as §1, §2, §3, §4"}, "[1]": {"test_system": "MIA PaCa-2 cells (pancreas)", "assay": "Cytotoxicity, WST-1 cell viability test, MIA PaCa-2", "details": "Homo sapiens, after 96 hours of treatment, read-out: Concentration decreasing by 50% the cell viability", "protocol": "as §1, §2, §3, §4"}, "PANC-1 cells (pancreas)": {"test_system": "PANC-1 cells (pancreas)", "assay": "Cytotoxicity, WST-1 cell viability test, PANC-1", "details": "Homo sapiens, after 96 hours of treatment, read-out: Concentration decreasing by 50% the cell viability", "protocol": "as §1, §2, §3, §4"}, "MCF-7 cells (breast)": {"test_system": "MCF-7 cells (breast)", "assay": "Cytotoxicity, WST-1 cell viability test, MCF-7", "details": "Homo sapiens, MCF7, after 96 hours of treatment, read-out: Concentration decreasing by 50% the cell viability", "protocol": "as §1, §2, §3, §4"}},
  "data": [
    {"smiles": "CCOC(=O)C(O)C[Se]C", "note": "(stereo not shown) [Compound 4, ethyl ester of 2-hydroxy-3-(methylseleno)propanoic acid]", "values": [
      {"measurement": "IC50", "setting": "DU145 cells (prostate)", "result": 481, "unit": "µM"},
      {"measurement": "IC50", "setting": "LS174T cells (colon)", "result": 335, "unit": "µM"}
    ]},
    {"smiles": "C[Se]CC(O)C(=O)O", "note": "(stereo not shown) [Compound 10, 2-hydroxy-3-(methylseleno)propanoic acid]", "values": [
      {"measurement": "IC50", "setting": "DU145 cells (prostate)", "result": 392, "unit": "µM"},
      {"measurement": "IC50", "setting": "LS174T cells (colon)", "result": 430, "unit": "µM"},
      {"measurement": "IC50", "setting": "HT-29 cells (colon)", "result": 328, "unit": "µM"}
    ]},
    {"smiles": "CCCCCCCCCCCC(=O)OC(C[Se]C)C(=O)O", "note": "(stereo not shown) [Compound 38, 2-(dodecanoyloxy)-3-(methylseleno)propanoic acid]", "values": [
      {"measurement": "IC50", "setting": "PC3 cells (prostate)", "result": 198, "unit": "µM"},
      {"measurement": "IC50", "setting": "Hep G2 cells (liver)", "result": 263, "unit": "µM"},
      {"measurement": "IC50", "setting": "DU145 cells (prostate)", "result": 169, "unit": "µM"},
      {"measurement": "IC50", "setting": "[1]", "result": 308, "unit": "µM"},
      {"measurement": "IC50", "setting": "LS174T cells (colon)", "result": 113, "unit": "µM"},
      {"measurement": "IC50", "setting": "HT-29 cells (colon)", "result": 166, "unit": "µM"},
      {"measurement": "IC50", "setting": "PANC-1 cells (pancreas)", "result": 253, "unit": "µM"},
      {"measurement": "IC50", "setting": "MCF-7 cells (breast)", "result": 215, "unit": "µM"}
    ]}
  ]
}
